According to US20240067603A1, “CUBANYL BIGUANIDE COMPOUNDS” (REGENTS OF THE UNIVERSITY OF MINNESOTA, priority 2020, published 2024):

Key:
MCF-7 cells = experiment: MTT cell proliferation assay, MCF-7; assay type: cell-based, human; settings: Homo sapiens, MCF7; MTT, 24 hours treatment, curve fitting; read-out: IC50, proliferation of MCF-7 cells
Method: FIG. 8. Effects of HCB on the proliferation of MCF-7 cells. MCF-7 cells were seeded in 96 well plates and treated with drugs at varied concentration for 24 hours. MTT assay was performed to determine remaining viable cells in each well. Results are represented as mean±S.D. (n=7). IC50 was determined by curve fitting.
3-(4,5-Dimethylthiazol-2-yl)-2,5-diphenyltetrazolium Bromide (MTT) Cell Proliferation Assay. To cells grown in 96-well-tissue culture plate, 20 μl/well of MTT solution (5 mg/ml in PBS) was added. After 1-2 hours incubation at 37° C., the plate was centrifuged. Supernatant was discarded and 100 μl DMSO was added to dissolve water insoluble formazan, and the absorbance was read at 540 nm with a plate reader.

SARS-CoV-2 [1] = experiment: SARS-CoV-2 antiviral assay in Vero cells; assay type: cell-based; settings: Severe acute respiratory syndrome coronavirus 2, Vero
SARS-CoV-2 [2] = experiment: microbe, parasite or virus in culture; assay type: cell-based
in vitro = settings: African green monkey, Vero E6 cells
Vero cells = experiment: Cytotoxicity assay in Vero cells
[3] = Cytotoxicity assay in 293T/ACE2 cells; settings: human, HEK293T/17 cells expressing human ACE2
[4] = test system: 293T human embryonic kidney cells over-expressing the ACE2 receptor; experiment: Cytotoxicity assay in 293T/ACE2 cells; settings: 293T/ACE2 cytotoxicity

SMILES: N=C(NCC12C3C4C5C3C1C5C42)NC(=N)NCC12C3C4C5C3C1C5C42 (centres unmarked) [DCB, Dicubanomethyl Biguanide]
- IC50 (MCF-7 cells): 22.1 ± 1.7 µM

SMILES: CC(F)(F)CCCCNC(=N)NC(=N)NCC12C3C4C5C3C1C5C42 (centres unmarked) [HCB-F2, N1-5′,5′-difluorohexyl-N5-(cuban-1-yl)methyl-biguanide]
- IC50 (MCF-7 cells): 13.5 µM

SMILES: N=C(NCCCCCC(F)(F)F)NC(=N)NCC12C3C4C5C3C1C5C42 (centres unmarked) [HCB-F3, N1-6′,6′,6′-trifluorohexyl-N5-(cuban-1′-yl)methyl-biguanide]
- IC50 (MCF-7 cells): 13.7 µM

SMILES: CCC(CC)COC(=O)[C@H](C)N[P@](=O)(OC[C@H]1O[C@@](C#N)(c2ccc3c(N)ncnn23)[C@H](O)[C@@H]1O)Oc1ccccc1 [remdesivir]
- IC50 (SARS-CoV-2 [1]; read-out: antiviral IC50): 1040 nM
- IC90 (SARS-CoV-2 [1]; read-out: antiviral IC90): 2250 nM
- IC50 (SARS-CoV-2 [2]; Severe acute respiratory syndrome coronavirus 2, 293T/ACE2, read-out: antiviral IC50): 20 nM
- IC90 (SARS-CoV-2 [2]; Severe acute respiratory syndrome coronavirus 2, 293T/ACE2, read-out: antiviral IC90): 22 nM
- CC50 at 48 h (in vitro): > 20 µM
- CC10 (Vero cells): > 0.286 µM
- CC50 [3]: > 100 nM
- CC10 [4]: > 0.1 µM
